Active and inactive are the calls of the source. The rule behind the calls is not given here.
How the values were obtained:
[1] = biological target: T1, Transmembrane protease serine 2 (Homo sapiens, UniProt O15393); test: Inhibition of recombinant TMPRSS2 (unknown origin) extracted from baculovirus infected in Sf9 cells assessed as residual activity using Boc-QAR-AMC as substrate at 1 nM measured after 1 hr by fluorescence based analysis relative to control
SARS-CoV-2 [2] = test: Antiviral activity against SARS-CoV-2 pseudotyped with delta spike protein infected in human Calu-3 cells assessed as prevention of virus-like particle cellular entry at 300 nM preincubated with cells for 3 hrs followed by viral infection and measured after 72 hrs by ONE-Glo-Ex luciferase assay relative to control; format: functional, Severe acute respiratory syndrome coronavirus 2; details: time 75 hrs
[3] = biological target: T1, Transmembrane protease serine 2; test: Inhibition of recombinant TMPRSS2 (unknown origin) extracted from baculovirus infected in Sf9 cells using Boc-QAR-AMC as substrate measured after 1 hr by fluorescence based analysis
Calu-3 = test: Cytotoxicity against human Calu-3 cells assessed as cell viability at 10 uM measured after 72 hrs by luminescence based Cell-Titer-Glo assay; format: toxicity; details: calu-3, 72 h
SARS-CoV-2 [4] = test: Antiviral activity against SARS-CoV-2 EG.5.1 infected in human Calu-3 cells assessed as reduction in residual intracellular nucleocapsid value at 1 uM preincubated with cells for 3 hrs followed by viral infection and measured after 48 hrs by immunostaining based analysis; format: functional, organism-based; details: Severe acute respiratory syndrome coronavirus 2, time 51.0 hrs
[5] = biological target: T1, Transmembrane protease serine 2; test: Inhibition of recombinant das TMPRSS2 (unknown origin) extracted from baculovirus infected in Sf9 cells assessed as inhibition constant using Boc-QAR-AMC as substrate measured after 1 hr by fluorescence based analysis
[6] = biological target: T2, Suppressor of tumorigenicity 14 protein (Homo sapiens, UniProt Q9Y5Y6); test: Inhibition of Matriptase (unknown origin) assessed as inhibition constant using Boc-QAR-AMC as substrate incubated for 1 hr by fluorescence based analysis
T2 sequence (Q9Y5Y6 whole entry): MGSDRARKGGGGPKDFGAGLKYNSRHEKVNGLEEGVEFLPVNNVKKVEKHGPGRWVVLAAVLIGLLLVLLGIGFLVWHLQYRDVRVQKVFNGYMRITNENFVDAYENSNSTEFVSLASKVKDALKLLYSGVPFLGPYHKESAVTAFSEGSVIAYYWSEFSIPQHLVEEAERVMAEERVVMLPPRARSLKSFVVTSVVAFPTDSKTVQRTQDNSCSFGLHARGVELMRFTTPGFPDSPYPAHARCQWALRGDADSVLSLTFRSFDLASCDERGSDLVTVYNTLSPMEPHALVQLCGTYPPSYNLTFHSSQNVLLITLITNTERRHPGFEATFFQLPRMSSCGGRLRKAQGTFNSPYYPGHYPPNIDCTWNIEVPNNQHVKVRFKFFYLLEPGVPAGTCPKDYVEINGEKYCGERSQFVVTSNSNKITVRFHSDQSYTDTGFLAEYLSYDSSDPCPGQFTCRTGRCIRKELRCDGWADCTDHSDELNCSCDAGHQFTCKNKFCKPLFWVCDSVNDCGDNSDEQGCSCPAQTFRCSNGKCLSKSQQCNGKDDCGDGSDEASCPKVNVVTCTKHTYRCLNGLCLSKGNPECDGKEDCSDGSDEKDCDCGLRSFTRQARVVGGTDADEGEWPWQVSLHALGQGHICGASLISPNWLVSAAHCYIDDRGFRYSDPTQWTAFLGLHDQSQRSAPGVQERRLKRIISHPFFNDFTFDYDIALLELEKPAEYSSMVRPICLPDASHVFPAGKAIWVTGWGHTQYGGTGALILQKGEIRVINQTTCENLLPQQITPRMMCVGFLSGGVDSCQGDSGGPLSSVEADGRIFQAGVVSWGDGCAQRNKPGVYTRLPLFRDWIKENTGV

Procathepsin L = Procathepsin L (Homo sapiens, UniProt P07711); test: Inhibition of recombinant human C-terminal 6 his-tagged Cathepsin L assessed as inhibition constant using Z-LR-AMC as peptide substrate incubated for 1 hr by fluorescence based analysis
Sequence of Procathepsin L (P07711 114-333 limits assumed): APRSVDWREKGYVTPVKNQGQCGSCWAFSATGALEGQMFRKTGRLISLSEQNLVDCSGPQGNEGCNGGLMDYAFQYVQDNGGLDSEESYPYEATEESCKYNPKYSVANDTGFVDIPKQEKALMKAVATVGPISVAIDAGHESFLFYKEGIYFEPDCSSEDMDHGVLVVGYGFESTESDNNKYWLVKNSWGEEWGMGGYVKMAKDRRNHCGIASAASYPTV

SARS-CoV-2 [7] = test: Antiviral activity against SARS-CoV-2 EG.5.1 infected in human Calu-3 cells preincubated with cells for 3 hrs followed by viral infection and measured after 48 hrs by immunostaining based analysis; format: functional, organism-based; details: Severe acute respiratory syndrome coronavirus 2, EG.5.1, Calu-3
SARS-CoV-2 [8] = test: Antiviral activity against SARS-CoV-2 JN.1 infected in human Calu-3 cells preincubated with cells for 3 hrs followed by viral infection and measured after 48 hrs by immunostaining based analysis; format: functional, organism-based; details: Severe acute respiratory syndrome coronavirus 2, JN.1, Calu-3
SARS-CoV-2 [9] = test: Antiviral activity against SARS-CoV-2 EG.5.1 infected in human Calu-3 cells assessed as reduction in residual intracellular nucleocapsid value at 1 uM preincubated with cells for 3 hrs followed by viral infection and measured after 48 hrs by immunostaining based analysis relative to control; format: functional, Severe acute respiratory syndrome coronavirus 2; details: time 51 hrs
[10] = Cytotoxicity against human Calu-3 cells assessed as cell viability measured after 72 hrs by luminescence based Cell-Titer-Glo assay; format: toxicity
[11] = biological target: T1, Transmembrane protease serine 2; test: Inhibition of full length TMPRSS2 (unknown origin) expressed in African green monkey Vero E6 cells using Boc-QAR-AMC as substrate incubated for 24 hrs by microplate reader analysis; format: cell-based
[12] = Toxicity in C57BL/6J mouse at 5 mg/kg, iv measured for 24 hrs; format: organism-based; details: in vivo
[13] = Toxicity in C57BL/6J mouse at 5 mg/kg, ISIN (Intranasal) measured for 24 hrs; format: organism-based; details: in vivo, inhaled_or_intranasal
[14] = Half life in C57BL/6J mouse plasma at 5 mg/kg, iv measured up to 24 hrs by LC-MS/MS analysis; format: ADME, organism-based; details: in vivo
[15] = Half life in C57BL/6J mouse plasma at 5 mg/kg, ISIN (Intranasal) measured up to 24 hrs by LC-MS/MS analysis; format: ADME, organism-based; details: in vivo, inhaled_or_intranasal
[16] = Bioavailability in C57BL/6J mouse at 5 mg/kg, ISIN (Intranasal) measured up to 24 hrs by LC-MS/MS analysis; format: ADME, organism-based; details: in vivo, inhaled_or_intranasal
[17] = Drug concentration in C57BL/6J mouse plasma measured after 15 mins; format: ADME; details: read-out: Drug uptake

T1 sequence (O15393 1-255 limits assumed): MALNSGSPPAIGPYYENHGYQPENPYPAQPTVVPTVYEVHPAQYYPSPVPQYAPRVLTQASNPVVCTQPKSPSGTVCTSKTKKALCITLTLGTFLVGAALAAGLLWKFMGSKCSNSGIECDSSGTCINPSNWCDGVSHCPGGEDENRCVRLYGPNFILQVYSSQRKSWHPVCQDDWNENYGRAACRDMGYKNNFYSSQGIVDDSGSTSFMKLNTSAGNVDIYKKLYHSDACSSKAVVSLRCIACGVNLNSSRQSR
T1 sequence (O15393 256-492 limits assumed): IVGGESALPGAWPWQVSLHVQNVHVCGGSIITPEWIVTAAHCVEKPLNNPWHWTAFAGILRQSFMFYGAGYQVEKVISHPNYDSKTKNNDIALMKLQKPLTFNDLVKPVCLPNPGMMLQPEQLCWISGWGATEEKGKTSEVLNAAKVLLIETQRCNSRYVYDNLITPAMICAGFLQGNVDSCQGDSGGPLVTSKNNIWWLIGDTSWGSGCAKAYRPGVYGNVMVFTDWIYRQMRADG

Compound | Activity [1] | Activity (SARS-CoV-2 [2]) | IC50 [3] | Activity (Calu-3) | Activity (SARS-CoV-2 [4]) | Ki [5] | Ki [6] | inhibition (Procathepsin L) | EC50 (SARS-CoV-2 [7]) | EC50 (SARS-CoV-2 [8]) | Activity (SARS-CoV-2 [9]) | CC50 at 72 h [10] | IC50 [11] | Activity [12] | Activity [13] | t1/2 [14] | t1/2 [15] | F [16] | concentration at 0.25 h [17]
C[C@H](NC(=O)[C@H](CCC(N)=O)NC(=O)CCCCNC(=N)N)C(=O)N[C@@H](CCCNC(=N)N)C(=O)c1nc2ccccc2s1 | 46% | 12% | 2.4 nM | Non-toxic | Active | 0.53 nM | 0.16 nM | inactive | 11.9 nM | 2.8 nM | – | – | – | – | – | – | – | – | –
N=C(N)NCCC[C@H](NC(=O)[C@H](Cc1ccccc1)NC(=O)[C@H](CCC(N)=O)NC(=O)OCc1ccccc1)C(=O)c1nccs1 | 3% | 13% | 0.35 nM | Non-toxic | Active | 0.03 nM | – | inactive | 0.3 nM | 0.09 nM | 2.2% | 110000 nM | 0.59 nM | Non-toxic | Non-toxic | 4.79 h | 1.8 h | 10.9% | 182 ng/mL

From ChEMBL document CHEMBL6109142 (J Med Chem, 2025)
